Results taken from patent US20210215714A1, “COMPLEMENT ALTERNATIVE PATHWAY-ASSOCIATED NEPHROPATHY BIOMARKERS” (Achillion Pharmaceuticals, Inc., priority 2018, published 2021).

Assays:
AP activity [1] = test: Wieslab assay (AP activity in vitro); format: biochemical
AP activity [2] = test: PNH erythrocyte hemolysis (AP activity in vitro); format: cell-based
C3c = test: Phase 2a study: urinary C3c (Hycult Human C3c Elisa Kit);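 note: urine from C3 glomerulopathy or IC-MPGN patients, C3c quantified by sandwich ELISA with absorbance read at 450 nm against a human C3c standard curve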
Protocol: To measure urinary C3c production, patient urine samples were tested utilizing the Hycult Biotech Human C3c Elisa Kit (HK368) for the quantitation of C3c in urine. […] Urine samples were thawed and centrifuged at 15,000 rpm for one minute. The supernatant was transferred to a fresh tube and diluted with C3c dilution buffer. Samples and standards were added to microtiter wells coated with antibodies recognizing human C3c and incubated at 1 hour at 15-25° C. Following incubation, the wells were washed 4 times with Wash Solution, with an incubation period of 1 minute each time. A biotinylated tracer antibody was added and used to bind to the captured human C3c. Streptavidin-peroxidase conjugate was then added to bind to the biotinylated tracer antibody. Tetramethylbenzidine (TMB) was then added to the Streptavidin-peroxidase conjugate. The enzyme reaction was stopped by the addition of oxalic acid. The absorbance at 450 nm was measured with a spectrophotometer. A standard curve was obtained by plotting the absorbance (linear) versus the corresponding concentrations of the human C3c standards (log). The human C3c concentration of samples, which are run concurrently with the standards, were determined from the standard curve.

[3] = tested on: AP C3 convertase formation; test: Phase 2a study: ex vivo serum Ba production; format: in vivo, human; details: 14-day treatment, patients A-F
Protocol: Systemic complement proteins were measured in serum and plasma including serum Ba, plasma Bb, serum C3, serum Factor D, serum C4, and % Fragment C3.

CC(=O)c1nn(CC(=O)N2C[C@H](F)C[C@H]2C(=O)Nc2cccc(Br)n2)c2ccc(-c3cnc(C)nc3)cc12 [Compound 1, (2S,4R)-1-(2-(3-acetyl-5-(2-methylpyrimidin-5-yl)-1H-indazol-1-yl)acetyl)-N-(6-bromopyridin-2-yl)-4-fluoropyrrolidine-2-carboxamide]
IC50 (AP activity [1]): 26 nM
IC50 (AP activity [2]): 14 nM
uC3c (C3c; Patient A, 100 mg TID, Day 1 predose): 25.4 ng/mL
uC3c (C3c; Patient A, 100 mg TID, Day 4): 15.2 ng/mL
uC3c (C3c; Patient A, 100 mg TID, Day 7-0 Hour): 7.1 ng/mL
uC3c (C3c; Patient A, 100 mg TID, Day 10): 9.9 ng/mL
uC3c (C3c; Patient A, 100 mg TID, Day 14): 3.6 ng/mL
uC3c (C3c; Patient A, 100 mg TID, Day 15 Taper): 6.8 ng/mL
uC3c (C3c; Patient A, 100 mg TID, Day 16 Taper): 4.1 ng/mL
uC3c (C3c; Patient A, 100 mg TID, Day 17 Taper): 8.5 ng/mL
uC3c (C3c; Patient A, 100 mg TID, Day 21): 7.8 ng/mL
uC3c (C3c; Patient A, 100 mg TID, Day 24): 11.4 ng/mL
uC3c (C3c; Patient A, 100 mg TID, Day 28): 15.6 ng/mL
uC3c (C3c; Patient A, 100 mg TID, Day 49): 32.8 ng/mL
uC3c (C3c; Patient B, 100 mg TID, Day 1 predose): 771.1 ng/mL
uC3c (C3c; Patient B, 100 mg TID, Day 4): 369.0 ng/mL
uC3c (C3c; Patient B, 100 mg TID, Day 7-0 Hour): 289.2 ng/mL
uC3c (C3c; Patient B, 100 mg TID, Day 10): 256.0 ng/mL
uC3c (C3c; Patient B, 100 mg TID, Day 14): 462.7 ng/mL
uC3c (C3c; Patient B, 100 mg TID, Day 15 Taper): 682.8 ng/mL
uC3c (C3c; Patient B, 100 mg TID, Day 16 Taper): 534.1 ng/mL
uC3c (C3c; Patient B, 100 mg TID, Day 17 Taper): 290.8 ng/mL
uC3c (C3c; Patient B, 100 mg TID, Day 21): 513.5 ng/mL
uC3c (C3c; Patient B, 100 mg TID, Day 24): 744.1 ng/mL
uC3c (C3c; Patient B, 100 mg TID, Day 28): 285.3 ng/mL
uC3c (C3c; Patient B, 100 mg TID, Day 49): >1000 ng/mL
uC3c (C3c; Patient C, 200 mg TID, Day 1 predose): <1.6 ng/mL
uC3c (C3c; Patient C, 200 mg TID, Day 4): <1.6 ng/mL
uC3c (C3c; Patient C, 200 mg TID, Day 7-0 Hour): <1.6 ng/mL
uC3c (C3c; Patient C, 200 mg TID, Day 10): <1.6 ng/mL
uC3c (C3c; Patient C, 200 mg TID, Day 14): <1.6 ng/mL
uC3c (C3c; Patient C, 200 mg TID, Day 15 Taper): <1.6 ng/mL
uC3c (C3c; Patient C, 200 mg TID, Day 17 Taper): <1.6 ng/mL
uC3c (C3c; Patient C, 200 mg TID, Day 21): <1.6 ng/mL
uC3c (C3c; Patient C, 200 mg TID, Day 24): 2.1 ng/mL
uC3c (C3c; Patient C, 200 mg TID, Day 28): <1.6 ng/mL
uC3c (C3c; Patient C, 200 mg TID, Day 49): <1.6 ng/mL
uC3c (C3c; Patient D, 200 mg TID, Day 1 predose): 8.8 ng/mL
uC3c (C3c; Patient D, 200 mg TID, Day 4): 5.3 ng/mL
uC3c (C3c; Patient D, 200 mg TID, Day 7-0 Hour): <1.6 ng/mL
uC3c (C3c; Patient D, 200 mg TID, Day 10): <1.6 ng/mL
uC3c (C3c; Patient D, 200 mg TID, Day 14): 3.7 ng/mL
uC3c (C3c; Patient D, 200 mg TID, Day 15 Taper): 3.6 ng/mL
uC3c (C3c; Patient D, 200 mg TID, Day 17 Taper): 4.8 ng/mL
uC3c (C3c; Patient D, 200 mg TID, Day 21): 5.8 ng/mL
uC3c (C3c; Patient D, 200 mg TID, Day 24): 5.1 ng/mL
uC3c (C3c; Patient D, 200 mg TID, Day 28): 5.1 ng/mL
uC3c (C3c; Patient D, 200 mg TID, Day 49): 7.0 ng/mL
uC3c (C3c; Patient E, 200 mg TID, Day 1 predose): 159.6 ng/mL
uC3c (C3c; Patient E, 200 mg TID, Day 4): 137.7 ng/mL
uC3c (C3c; Patient E, 200 mg TID, Day 7-0 Hour): 168.2 ng/mL
uC3c (C3c; Patient E, 200 mg TID, Day 10): 123.2 ng/mL
uC3c (C3c; Patient E, 200 mg TID, Day 14): 64.4 ng/mL
uC3c (C3c; Patient E, 200 mg TID, Day 15 Taper): 39.7 ng/mL
uC3c (C3c; Patient E, 200 mg TID, Day 16 Taper): 46.8 ng/mL
uC3c (C3c; Patient E, 200 mg TID, Day 17 Taper): 107.0 ng/mL
uC3c (C3c; Patient E, 200 mg TID, Day 21): 41.2 ng/mL
uC3c (C3c; Patient E, 200 mg TID, Day 24): 89.6 ng/mL
uC3c (C3c; Patient E, 200 mg TID, Day 28): 97.8 ng/mL
uC3c (C3c; Patient E, 200 mg TID, Day 49): 120.3 ng/mL
uC3c (C3c; Patient F, 200 mg TID, Day 1 predose): 216.3 ng/mL
uC3c (C3c; Patient F, 200 mg TID, Day 4): 63.0 ng/mL
uC3c (C3c; Patient F, 200 mg TID, Day 7-0 Hour): 25.8 ng/mL
uC3c (C3c; Patient F, 200 mg TID, Day 10): 43.9 ng/mL
uC3c (C3c; Patient F, 200 mg TID, Day 14): 31.8 ng/mL
uC3c (C3c; Patient F, 200 mg TID, Day 15 Taper): 24.2 ng/mL
uC3c (C3c; Patient F, 200 mg TID, Day 16 Taper): 30.0 ng/mL
uC3c (C3c; Patient F, 200 mg TID, Day 17 Taper): 32.4 ng/mL
uC3c (C3c; Patient F, 200 mg TID, Day 21): 64.0 ng/mL
uC3c (C3c; Patient F, 200 mg TID, Day 24): 34.4 ng/mL
uC3c (C3c; Patient F, 200 mg TID, Day 28): 41.5 ng/mL
uC3c (C3c; Patient F, 200 mg TID, Day 49): 154.5 ng/mL
Urinary C3c levels (C3c; two-week treatment): reduced significantly
Urinary C3c levels normalized to urinary creatinine or albumin (C3c; two-week treatment): reduced significantly
Ex vivo serum Ba production [3]: inhibited
